{
  "source": "patent US20240189388A1",
  "about": "“MEDICATION FOR TREATING LUNG INJURY” (SHANGHAI SEME CELL TECHNOLOGY CO., LTD., priority 2021, published 2024)",
  "key": {"[1]": {"tested_on": "rats with a lung injury", "assay": "Histopathological examination of lung, 5-grade method (Example 2)", "type": "in vivo, Sprague-Dawley rats", "description": "(§1) D0: The animals in the normal control group were intraperitoneally injected with sodium chloride injection (1 ml/kg), while the animals in other groups were intraperitoneally injected with lipopolysaccharides (1 mg/kg, 1 ml/kg).\n(§2) D1: After 16 h (+30 min) of intraperitoneal injection, the animals were anesthetized by inhaling isoflurane. The animals in the normal control group were nebulized with sodium chloride injection (1 mL/kg) in the trachea, while the animals in other groups were nebulized with lipopolysaccharides (5 mg/kg, 1 ml/kg) in the trachea.\n(§3) Administration frequency and duration: On D1, the animals were administered for the first time within 3 h after the intratracheal nebulization with the modeling reagent (LPS); and on D2, the animals were administered for the second time. The interval between the two administrations was about 24 h (+20 min).\nGeneral observation: All animals in each group (including dead animals) were dissected and their tissues were stored. The animals that died during non-working hours were stored in the 2° C.-8° C. refrigerator and dissected as soon as possible within 24 hours. After dissecting and retaining tissues, animal carcasses were disposed of as medical waste.\nDuring the autopsy, whether the lungs, trachea, and bronchi of the animals were abnormal were observed. The middle lobe of the right lung was incised and weighed for calculating a wet/dry weight ratio. The remaining tissues and bronchi of the right lung were fixed in a 10% neutral buffered formalin solution, followed by paraffin embedding, slicing, section preparation, and HE staining for pathological morphological observation of lung tissues. Standard terminologies were used for diagnosis and classification, and the lung tissues were pathologically examined by a 5-grade method (slight, mild, moderate, obvious, and severe)."}, "[2]": {"tested_on": "rats with a lung injury", "assay": "Wet/dry ratio of the lung (Example 2)", "type": "in vivo, Sprague-Dawley rats", "description": "as §1, §2, §3\nDuring the autopsy, whether the lungs, trachea, and bronchi of the animals were abnormal were observed. […]\nForeign matters such as blood and tissue fluid on the surface of the middle lobe tissues of the right lung were wiped with a paper towel, the right lung was weighed, then the middle lobe tissues of the right lung were placed in a 60° C. oven for 72 h, the right lung was weighed again, and the wet/dry weight ratio of the lung was calculated. […]"}, "[3]": {"tested_on": "LPS-induced acute respiratory distress syndrome", "assay": "BALF neutrophil count and percentage, LPS-induced ARDS rat model (Example 1)", "type": "in vivo, SD rats", "description": "Normal adult male SD rats were randomly grouped, 5 rats in each group. The animals were intraperitoneally injected and nebulized in the trachea with lipopolysaccharides (LPS) as a modeling reagent, as shown in Table 1:\nThe animals in groups G1 and G2 were intraperitoneally injected with lipopolysaccharides (0.8 mg/kg. body weight) according to their body weight, anesthetized by inhaling isoflurane after 16 h of the intraperitoneal injection, and nebulized with lipopolysaccharides (5 mg/kg. body weight) in the trachea.\nIntraperitoneal injection with lipopolysaccharides (LPS): According to the body weight of the animals, each animal was administered with lipopolysaccharides by intraperitoneal injection with a disposable micro syringe.\nIntratracheal nebulization with lipopolysaccharides (LPS): Each animal was anesthetized by inhaling isoflurane and then fixed on a rat fixator placed at a 45° angle, the root of the animal's tongue was pressed by a small animal anesthesia laryngoscope to expose the glottis, a pulmonary micro liquid nebulizer needle (blunt) that extracted a quantitative solution of LPS was gently inserted into the trachea, then the piston was quickly pushed to atomize the LPS solution into the lung, the needle was quickly pulled out, and the animal was taken down from the fixator and rotated left and right with its head facing upwards to distribute LPS as evenly as possible in each lung lobe.\nThe animals were administered for the first time within 1 h after the intratracheal nebulization with the modeling reagent (LPS), and the second time after 24 h.\nThe day after the end of the second administration (48 h after the intratracheal nebulization with the modeling reagent).\nCollection of samples: On the day after the second administration, all groups of animals were euthanized with CO2, then their abdominal cavities were opened, and their abdominal arteries were cut for bleeding. […] Precipitated cells were re-suspended with 1 ML PBS, and total cells in the BALF were counted by a blood cell counter and trypan blue staining. […]"}, "[4]": {"tested_on": "rats with a lung injury", "assay": "BALF white blood cell count and classification (Example 2)", "type": "in vivo, Sprague-Dawley rats", "conditions": "D3, 0.75 mg/kg i.v. twice, 6 rats, x ± SD", "description": "as §1, §2, §3\n(§4) Sample collection: After the animals were euthanatized, the skin and tissues of the neck and chest were incised to expose the trachea, bronchi, and lungs. The bronchi in the right lung were separated and ligated. A suture was threaded under the trachea, a ½ incision was made between cartilage rings of the trachea at an appropriate position under the thyroid cartilage, a trachea cannula was slowly inserted along the incision into the airway to a left bronchus, and the inserted cannula was fastened with the trachea by using the threaded suture at an appropriate position in a centripetal direction of the incision. 3 ml of PBS buffer was slowly injected with a syringe for bronchoalveolar lavage. The lavage was repeated 3 times, with each remaining for about 10 seconds. The lavage solution was collected into a centrifuge tube of appropriate capacity.\n(§5) BALF treatment: The collected lavage solution was centrifuged at 4° C. and approximately 2000 rpm for 20 min. The supernatant was stored below −60° C. for later use. The precipitate was re-suspended with I mL of PBS buffer for count and classification of white blood cells. The supernatant after BALF centrifugation was managed as a sample by using a Watson LIMS7.5 system.\nClassification and test of white blood cells: White blood cells in the re-suspended BALF were counted and classified by a fully automatic blood cell analyzer."}, "[5]": {"tested_on": "rats with a lung injury", "assay": "BALF inflammatory factors and total protein (Example 2)", "type": "in vivo, Sprague-Dawley rats", "description": "as §1, §2, §3, §4, §5\nTest of total protein content in the BALF: At the end of the experiment, the total protein content in the BALF was tested by a total protein test kit (BCA method).\nTest of inflammatory factors in the BALF: At the end of the experiment, the inflammatory factors (IL-1β, IL-6, IL-10, and TNF-α) in the BALF were tested by an inflammatory factor test kit."}, "[6]": {"conditions": "++ = mild, test sample group, 6 rats, 0.75 mg/kg"}, "[7]": {"conditions": "+++ = moderate, test sample group, 6 rats, 0.75 mg/kg"}, "[8]": {"conditions": "++++ = obvious, test sample group, 6 rats, 0.75 mg/kg"}, "[9]": {"conditions": "+++++ = severe, test sample group, 6 rats, 0.75 mg/kg"}, "[10]": {"conditions": "test sample group vs model control group"}, "[11]": {"conditions": "− = no lesion, test sample group, 6 rats, 0.75 mg/kg"}, "[12]": {"conditions": "G2 mean, 5 rats, 1 mg/kg caudal vein injection twice, 48 h after LPS nebulization"}, "[13]": {"conditions": "D3, 0.75 mg/kg i.v. twice, 6 rats, x ± SD"}},
  "data": [
    {"substance": "Annexin A5", "values": [
      {"measurement": "Bleeding of the lung under a microscope", "setting": "[1]; 0.75 mg/kg i.v. twice, D3", "value": "mildly"},
      {"measurement": "Infiltration of the lung by inflammatory cells under a microscope", "setting": "[1]; 0.75 mg/kg i.v. twice, D3", "value": "moderately to obviously"},
      {"measurement": "Proliferation of alveolar epithelial cells under a microscope", "setting": "[1]; 0.75 mg/kg i.v. twice, D3", "value": "mild to moderate"},
      {"measurement": "Degree of alveolar wall thickening lesion: number of animals with grade ++", "setting": "[1]; [6]", "value": 3},
      {"measurement": "Degree of inflammatory cell infiltrating lesion: number of animals with grade ++", "setting": "[1]; [6]", "value": 0},
      {"measurement": "Degree of alveolar wall thickening lesion: number of animals with grade +++", "setting": "[1]; [7]", "value": 3},
      {"measurement": "Degree of inflammatory cell infiltrating lesion: number of animals with grade +++", "setting": "[1]; [7]", "value": 2},
      {"measurement": "Degree of alveolar wall thickening lesion: number of animals with grade ++++", "setting": "[1]; [8]", "value": 0},
      {"measurement": "Degree of inflammatory cell infiltrating lesion: number of animals with grade ++++", "setting": "[1]; [8]", "value": 4},
      {"measurement": "Degree of alveolar wall thickening lesion: number of animals with grade +++++", "setting": "[1]; [9]", "value": 0},
      {"measurement": "Degree of inflammatory cell infiltrating lesion: number of animals with grade +++++", "setting": "[1]; [9]", "value": 0},
      {"measurement": "Change of inflammatory cell infiltrating lesions", "setting": "[1]; in all rats, vs model", "value": "changed from severe and obvious to obvious and moderate"},
      {"measurement": "Change of alveolar wall thickness", "setting": "[1]; in half of the rats, vs model", "value": "changed from moderate to mild"},
      {"measurement": "Degree of lung lesions", "setting": "[1]; [10]", "value": "lower than that of the model control group"},
      {"measurement": "Degree of alveolar wall thickening lesion: number of animals with grade −", "setting": "[1]; [11]", "value": 0},
      {"measurement": "Degree of inflammatory cell infiltrating lesion: number of animals with grade −", "setting": "[1]; [11]", "value": 0},
      {"measurement": "Wet/dry ratio of the lung", "setting": "[2]; middle lobe of right lung, 0.75 mg/kg i.v. twice, 6 rats, x ± SD", "value": "4.68 ± 0.08"},
      {"measurement": "Change of wet/dry ratio of the lung", "setting": "[2]; test sample group", "value": "decreased"},
      {"measurement": "Effect on count of neutrophils (Neu cells) in the BALF", "setting": "[3]; G2 compared to model control group G1", "value": "significantly inhibited"},
      {"measurement": "Neu cell counts in the BALF", "setting": "[3]; [12]", "value": "7.03 *10^6"},
      {"measurement": "Percentages of Neu cells in the BALF", "setting": "[3]; [12]", "value": 36.80, "unit": "%"},
      {"measurement": "Lymphocytes in BALF", "setting": "[4]", "value": "0.58 ± 0.22 ×10^9 cells/L"},
      {"measurement": "Monocytes in BALF", "setting": "[4]", "value": "0.38 ± 0.47 ×10^9 cells/L"},
      {"measurement": "Neutrophils in BALF", "setting": "[4]", "value": "2.54 ± 2.07 ×10^9 cells/L"},
      {"measurement": "White blood cell in BALF", "setting": "[4]", "value": "3.63 ± 2.05 ×10^9 cells/L"},
      {"measurement": "IL-1β in BALF", "setting": "[5]; [13]", "value": "107.45 ± 51.12", "unit": "pg/mL"},
      {"measurement": "IL-6 in BALF", "setting": "[5]; [13]", "value": "14.42 ± 23.92", "unit": "pg/mL"},
      {"measurement": "IL-10 in BALF", "setting": "[5]; [13]", "value": "0.92 ± 2.23", "unit": "pg/mL"},
      {"measurement": "TNF-α in BALF", "setting": "[5]; [13]", "value": "4.54 ± 4.63", "unit": "pg/mL"},
      {"measurement": "Total proteins in BALF", "setting": "[5]; [13]", "value": "461.31 ± 187.36", "unit": "µg/mL"},
      {"measurement": "Change of BALF white blood cell counts, total protein and inflammatory factors", "setting": "[5]; [10]", "value": "significantly decreased"}
    ]}
  ]
}
